The record followed here is patent publication US11773077B2, “Compounds containing carbon-carbon linker as GPR120 agonists” (PIRAMAL ENTERPRISES LIMITED, priority 2015, dated 2023).

Molecules are shown by their SMILES.

The assay concerns the target T1, GPR120L (Long Isoform) receptor (Homo sapiens, UniProt Q5NUL3).
T1 construct: expressed in transfected cells; similar procedure in HEK 293 cells
T1 sequence (Q5NUL3 1-377 isoform Q5NUL3-1): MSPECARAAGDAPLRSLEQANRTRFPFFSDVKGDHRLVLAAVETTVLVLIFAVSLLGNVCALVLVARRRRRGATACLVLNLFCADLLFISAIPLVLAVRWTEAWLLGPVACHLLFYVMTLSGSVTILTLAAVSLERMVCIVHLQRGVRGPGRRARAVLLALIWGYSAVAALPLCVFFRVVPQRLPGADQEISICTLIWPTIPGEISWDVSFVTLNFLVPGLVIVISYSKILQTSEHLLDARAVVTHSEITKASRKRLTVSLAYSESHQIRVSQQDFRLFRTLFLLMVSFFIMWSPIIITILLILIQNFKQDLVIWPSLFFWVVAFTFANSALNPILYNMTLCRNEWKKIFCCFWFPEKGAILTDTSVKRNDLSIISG
In words: Beta (β) arrestin 2 Interaction Assay (β-galactosidase enzyme fragment complementation). The class given is cell-based. To be noted: β-arrestin recruitment; CHO-K1 cells stably expressing GPR120L, similar procedure for HEK 293 cells; 2 hours incubation. On the procedure: Beta (β) arrestin 2 Interaction Assay […] was performed using CHO-K1 cells stably expressing the GPR120L (Long Isoform) receptor using β-galactosidase (Beta gal) enzyme fragment complementation assay. The measurement of GPR120 activation upon agonist activation was directly provided by β-arrestin recruitment. One day before the β-arrestin 2 assay, CHO-K1 cells were seeded and incubated overnight at 37° C. in a 5% CO2 humidified atmosphere. Cells were treated with the test compounds in various concentrations ranging from 30 μM to 1 nM and incubated for 2 hours for GPCR (GPR120) activation. Extent of Arrestin recruitment was measured by adding detection reagents for Beta gal complementation assay, and was further incubated for 1 hour. The chemiluminescent signal was detected on Polar Star (BMG Labtech). The dose-response curve was analyzed using Sigma Plot/Graph Pad. The EC50 (concentration of the test compounds where 50% of compounds' maximal activity is observed) values were calculated from the dose-response curve.

In the case of `Cc1ccc(-c2ccc(F)cc2C#Cc2ccc(CCCC(=O)O)nc2)s1` [Compound 3, 4-(5-((5-Fluoro-2-(5-methylthiophen-2-yl)phenyl)ethynyl)pyridin-2-yl)butanoic acid], the EC50 was in the range of 5000 to 10000 nM.

Molecule `Cc1ccc(-c2ccc(F)cc2CC(F)(F)c2ccc(CCCC(=O)O)cc2)s1` [Compound 5, 4-(4-(1,1-Difluoro-2-(5-fluoro-2-(5-methylthiophen-2-yl)phenyl)ethyl)phenyl)butanoic acid] showed an EC50 of 50 to 500 nM.

As for `CC1(c2ccc(-c3ccc(F)cc3CC(F)(F)c3ccc(CCCC(=O)O)cc3)s2)CC1` [Compound 6, 4-(4-(1,1-Difluoro-2-(5-fluoro-2-(5-(1-methylcyclopropyl)thiophen-2-yl)phenyl)ethyl)phenyl)butanoic acid], the EC50 fell in the range of 500 to 5000 nM.

The molecule `N#CC1(c2ccc(-c3ccc(F)cc3C#Cc3ccc(CCCC(=O)O)cc3)s2)CC1` [Compound 11, 4-(4-((2-(5-(1-Cyanocyclopropyl)thiophen-2-yl)-5-fluorophenyl)ethynyl)phenyl)butanoic acid] displayed an EC50 of 500 to 5000 nM.

Turning to `O=C(O)CCCc1ccc(CCc2cc(F)ccc2-c2nc3c(s2)CCCC3)cc1` [Compound 12, 4-(4-(5-fluoro-2-(4,5,6,7-tetrahydrobenzo[d]thiazol-2-yl)phenethyl)phenyl)butanoic acid], the EC50 lay in the range of 50 to 500 nM.

Turning to `CC1(c2ccc(-c3ccc(F)cc3C=Cc3ccc(CCCC(=O)O)cc3)s2)CC1` [Compound 14, 4-(4-(5-fluoro-2-(5-(1-methylcyclopropyl)thiophen-2-yl)styryl)phenyl)butanoic acid], the EC50 is 50 to 500 nM.

Regarding `O=C(O)CCCc1ccc(C#Cc2cc(F)ccc2-c2ccc(C3CC3)s2)cc1` [Compound 18, 4-(4-((2-(5-cyclopropylthiophen-2-yl)-5-fluorophenyl)ethynyl)phenyl)butanoic acid], the concentration for a half-maximal effect (EC50) lay within 50 to 500 nM.

In turn, `COc1ccc(-c2ccc(F)cc2CC(F)(F)c2ccc(CCCC(=O)O)cc2)cn1` [Compound 20, 4-(4-(1,1-difluoro-2-(5-fluoro-2-(6-methoxypyridin-3-yl)phenyl)ethyl)phenyl)butanoic acid] had an EC50 of 50 to 500 nM.
